In ChEMBL document CHEMBL1149032, “Two new cytotoxic peroxide-containing acids from a New Guinea sponge, Callyspongia sp” (1994):
≈ marks a conversion by molar mass, not a printed value.

Test system: P388
Experiment: Cytotoxicity against mouse P388 cells
Type: functional
Details: read-out: ED50 (the source's name)

SMILES	EC50 [µg/mL]
C/C=C1/C[C@](CC)(CCCC)OO[C@H]1CC(=O)O	5.5 (≈ 21.5 µM)
CCCCC1(CC)C[C@@H](CC)[C@H](CC(=O)O)OO1 (some centres not stated)	2.6 (≈ 10.1 µM)
